Experimental findings from JPH0770139A, “2−(モノ又はジ置換−6，7−ジヒドロ−5H−ピラゾロ[1，2−a]ピラゾリウム−6−イル)チオ−カルバペネム誘導体” (Lederle Japan Ltd, priority 1993, dated 1994) are described below.

The series concerns male CrjCD(SD) mice [CrjCD(SD)系雄性マウス]. As to the kind of experiment: Toxicity test (subcutaneous administration to mice, 1 week observation). In kind it is in vivo, mouse. The conditions noted are these: 500mg/kg, 10 male CrjCD(SD) mice, body weight 20-23 g, observation for 1 week.
With `Cc1cc(C)[n+]2n1CC(SC1=C(C(=O)[O-])N3C(=O)[C@H]([C@@H](C)O)[C@H]3[C@H]1C)C2` (stereo partly drawn) [化合物(26), (1R,5S,6S)−2−[(6,7−ジヒドロ−1,3−ジメチル−5H−ピラゾロ[1,2−a]ピラゾリウム−6−イル)チオ]−6−[(R)−1−ヒドロキシエチル]−1−メチル−カルバペン−2−エム−3−カルボキシレート], the survival without abnormality result was “すべて異常なく生存した”. The entry for `C[C@@H](O)[C@H]1C(=O)N2C(C(=O)[O-])=C(SC3Cn4cc(C(=O)N(C)C)c[n+]4C3)[C@H](C)[C@H]12` (stereo partly drawn) [化合物(28), (1R,5S,6S)−2−{[6,7−ジヒドロ−2−(N,N−ジメチルカルバモイル)−5H−ピラゾロ[1.2−a]ピラゾリウム−6−イル]チオ}−6−[(R)−ヒドロキシエチル]−1−メチルカルバペン−2−エム−3−カルボキシレート] is “すべて異常なく生存した”; for `C[C@@H](O)[C@H]1C(=O)N2C(C(=O)[O-])=C(SC3Cn4cc(F)c[n+]4C3)[C@H](C)[C@H]12` (stereo partly drawn) [化合物(30), (1R,5S,6S)−2−[(6,7−ジヒドロ−2−フルオロ−5H−ピラゾロ[1.2−a]ピラゾリウム−6−イル)チオ]−6−[(R)−1−ヒドロキシエチル]−1−メチルカルバペン−2−エム−3−カルボキシレート] it is “すべて異常なく生存した”.
